Measurements reported in ChEMBL document CHEMBL1148610, “Novel potential anticancer naphthyl phosphoramidates of BVdU: separation of diastereoisomers and assignment of the absolute configuration of the phosphorus center” (J Med Chem, 2006).
pEC50: −log10 of the molar value.

How the values were obtained:
Format in all cases: functional, cell-based
[1] = test system: PC-3; test: Cytostatic activity against human prostate cancer PC3 cell line
[2] = test system: MDA-MB-231; test: Cytostatic activity against human breast cancer MDA-MB-231 cell line
[3] = test system: T-24; test: Cytostatic activity against human bladder cancer T24 cell line

pEC50 [1]	pEC50 [2]	pEC50 [3]	Structure (SMILES)
5.16	5.82	–	CCC(C)[C@H](NP(=O)(OC[C@H]1O[C@@H](n2cc(/C=C/Br)c(=O)[nH]c2=O)C[C@@H]1O)Oc1cccc2ccccc12)C(=O)OC (stereo partly specified)
5.85	3.89	–	CCC(C)[C@H](NP(=O)(OC[C@H]1O[C@@H](n2cc(/C=C/Br)c(=O)[nH]c2=O)C[C@@H]1O)Oc1cccc2ccccc12)C(=O)OCc1ccccc1 (stereo partly specified)
5.21	5.20	5.55	C[C@@H](NP(=O)(OCC1OC(n2cc(/C=C/Br)c(=O)[nH]c2=O)CC1O)Oc1cccc2ccccc12)C(=O)OCc1ccccc1 (stereo partly specified)
5.24	5.71	3.57	O=C(OCc1ccccc1)[C@H](Cc1ccccc1)NP(=O)(OCC1OC(n2cc(/C=C/Br)c(=O)[nH]c2=O)CC1O)Oc1cccc2ccccc12 (stereo partly specified)
4.99	5.07	5.28	COC(=O)[C@H](Cc1ccccc1)NP(=O)(OCC1OC(n2cc(/C=C/Br)c(=O)[nH]c2=O)CC1O)Oc1cccc2ccccc12 (stereo partly specified)
5.82	5.57	–	CC(C)(NP(=O)(OC[C@H]1O[C@@H](n2cc(/C=C/Br)c(=O)[nH]c2=O)C[C@@H]1O)Oc1cccc2ccccc12)C(=O)OCc1ccccc1 (stereo partly specified)
4.18	6.49	–	COC(=O)C(C)(C)NP(=O)(OC[C@H]1O[C@@H](n2cc(/C=C/Br)c(=O)[nH]c2=O)C[C@@H]1O)Oc1cccc2ccccc12 (stereo partly specified)
5.77	3.98	–	COC(=O)[C@@H](NP(=O)(OCC1OC(n2cc(/C=C/Br)c(=O)[nH]c2=O)CC1O)Oc1cccc2ccccc12)c1ccccc1 (stereo partly specified)
5.08	5.23	4.90	CC(C)[C@H](NP(=O)(OCC1OC(n2cc(/C=C/Br)c(=O)[nH]c2=O)CC1O)Oc1cccc2ccccc12)C(=O)OCc1ccccc1 (stereo partly specified)
4.35	4.55	4.71	COC(=O)[C@H](CCSC)NP(=O)(OCC1OC(n2cc(/C=C/Br)c(=O)[nH]c2=O)CC1O)Oc1cccc2ccccc12 (stereo partly specified)
4.96	5.32	5.40	C[C@H](NP(=O)(OCC1OC(n2cc(/C=C/Br)c(=O)[nH]c2=O)CC1O)Oc1cccc2ccccc12)C(=O)OC(C)(C)C (stereo partly specified)

Structure (SMILES)	pEC50 [1]	pEC50 [2]	pEC50 [3]
COC(=O)[C@H](C(C)C)P(=O)(OCC1OC(n2cc(/C=C/Br)c(=O)[nH]c2=O)CC1O)Oc1cccc2ccccc12 (stereo partly specified)	4.80	4.83	4.36
C[C@H](NP(=O)(O)Oc1cccc2ccccc12)C(=O)OCc1ccccc1	5.77	4.82	–
COC(=O)[C@@H]1CCCN1P(=O)(OCC1OC(n2cc(/C=C/Br)c(=O)[nH]c2=O)CC1O)Oc1cccc2ccccc12 (stereo partly specified)	4.98	5.19	6.40
